In brackets after ≈: the same amount, converted by molar mass. Some results are limits rather than exact numbers.

The conditions of this series: buffer; pH 7.4; 200.0 µM.
A word on the kinetic solubility: it is solubility judged after dilution from a stock solution rather than from solid. `CCN(CCS(=O)(=O)c1ccc(Cl)cc1)C(=O)Nc1ccc(Cl)cc1` displayed a kinetic solubility of 43.2 µg/mL (≈ 108 µM).

`Cc1ccc(OCC(=O)Nc2ccc3c(c2)C(=O)NC3=O)c(C)c1` yielded a kinetic solubility of 0.6 µg/mL (≈ 1.85 µM).

Regarding `O=S1(=O)NC(=NCCOCCO)c2ccccc21`, the solubility (kinetic) is > 40.5 µg/mL.

`N#C/C(=C\N1CCOCC1)S(=O)(=O)c1ccc(Cl)cc1` displayed a solubility (kinetic) of 45 µg/mL (≈ 144 µM).

In the case of `Cc1nc(-c2ccccn2)nc(N2CCOCC2)c1Cl`, the kinetic solubility is > 43.6 µg/mL.

Regarding `O=C1CCCN1Cc1ccccc1`, the solubility (kinetic) was > 26.3 µg/mL.

`CCOC(=O)c1ccc(NC(=S)N2CCCC2)cc1` gave a solubility (kinetic) of 39.6 µg/mL (≈ 142 µM).

Turning to `Cc1ccc(SCC(=O)c2ccc[nH]2)cc1`, the solubility (kinetic) was found to be 24.6 µg/mL (≈ 106 µM).

The compound `O=C(c1c[nH]c2ccccc12)N1CCOCC1` registered a kinetic solubility of 26.3 µg/mL (≈ 114 µM).

As to `CCc1ccc(NC(=O)COC(=O)c2cccs2)cc1`, the kinetic solubility was found to be 2.8 µg/mL (≈ 9.68 µM).

As to `O=C1CS/C(=C/C(=O)c2cccc(Cl)c2)N1`, the kinetic solubility came to 10.5 µg/mL (≈ 41.4 µM).

For the compound `O=C(NCCO)C1COc2ccccc2O1` (stereo not given), the solubility (kinetic) was > 33.5 µg/mL.

`CCCS(=O)(=O)N1CCCC(C(=O)Oc2ccc(Cl)cc2)C1` (stereo not given): the solubility (kinetic) amounted to 1.5 µg/mL (≈ 4.34 µM).

On to `C=CC(=O)NN(C)c1ncc(C(F)(F)F)cc1Cl`, for which the solubility (kinetic) was > 41.9 µg/mL.

`Cc1ccc(NC(=O)c2ccc3[nH]c(=O)c(=O)[nH]c3c2)nc1` gave a kinetic solubility of 8.7 µg/mL (≈ 29.4 µM).

Turning to `CCC(C(=O)NC1CCN(C)CC1)c1ccccc1` (stereo not given), the solubility (kinetic) is > 39.1 µg/mL.

As for `N#Cc1ccc(Cl)cc1NC(=O)CSc1cccc[n+]1[O-]`, the kinetic solubility was > 48 µg/mL.

On to `O=C(COC(=O)CNC(=O)C1CCCCC1)Nc1ccccc1OC(F)F`, for which the solubility (kinetic) was > 57.7 µg/mL.

In the case of `O=C(Nc1ccc(Nc2ccccc2)cc1)c1ccc(Cl)cc1[N+](=O)[O-]`, the kinetic solubility is < 0.3 µg/mL.

For the compound `Cc1cnc(C(=O)OCC(=O)c2ccc(Cl)cc2)cn1`, the solubility (kinetic) was > 43.6 µg/mL.

`Cc1ccc(NC(=O)CCN2CCN(C)CC2)cc1.Cl` showed a kinetic solubility of 36.9 µg/mL.

`COc1ccc(NC(=O)CSc2cc(C)ccc2C)cn1`: the solubility (kinetic) was 45.1 µg/mL (≈ 149 µM).

Compound `CC(=O)N1CCN(C(=O)c2cc(C)nc3ccccc23)CC1` came in with a solubility (kinetic) of 33.7 µg/mL (≈ 113 µM).

Consider `Nc1nc(COc2ccc(F)cc2)nc(N2CCCCC2)n1`, for which the solubility (kinetic) stood at 1.9 µg/mL (≈ 6.26 µM).

`CCOC(=O)Cc1csc(NC(=O)CCC(=O)O)n1`: the kinetic solubility was > 42.9 µg/mL.

Regarding `COc1ccc(/C=C/C(=O)O/N=C(\N)c2ccccn2)cc1OC`, the solubility (kinetic) worked out at 7.8 µg/mL (≈ 23.8 µM).

Compound `O=C(CN1CCN(c2ccccc2F)CC1)NCc1ccc(Cl)cc1` returned a solubility (kinetic) of 49.1 µg/mL (≈ 136 µM).

In the case of `COc1ccccc1CNC(=O)COC(=O)c1ccccn1`, the solubility (kinetic) was > 45 µg/mL.

In turn, `CC(C)/C(C=O)=C(/NC1CCCCC1)c1ccccc1` had a solubility (kinetic) of 0.9 µg/mL (≈ 3.32 µM).

Consider `COc1ccc(NC(=O)COC(=O)Cc2coc3cc(OC)ccc23)c(OC)c1`, for which the kinetic solubility came to 11.8 µg/mL (≈ 29.5 µM).

On to `CN(Cc1nc2ccccc2n1C)c1ccccc1`, for which the solubility (kinetic) was > 37.7 µg/mL.

Turning to `Cc1nn(C)c(C)c1/C=C/C(=O)O`, the kinetic solubility was > 27 µg/mL.

In the case of `CN(C(=S)NC(=O)C1CC1)c1ccc(O)cc1`, the solubility (kinetic) was > 37.5 µg/mL.

Compound `CCC(=Nc1ccccc1)C1=C(O)CCCC1=O` displayed a kinetic solubility of 19.9 µg/mL (≈ 81.8 µM).

Regarding `CC(=O)c1ccc(NC(=S)NC(=O)Cc2ccc(Cl)cc2)cc1`, the kinetic solubility came to 0.4 µg/mL (≈ 1.15 µM).

With `COc1ccc(/C=C2\N=C(C)OC2=O)cc1OC(C)=O`, the solubility (kinetic) was > 41.3 µg/mL.

The compound `CN(CC(=O)NCCc1ccc(F)cc1)Cc1ccccc1` came in with a kinetic solubility of 38.7 µg/mL (≈ 129 µM).

In the case of `CCc1ccccc1NC(=O)N1C[C@H]2C[C@@H](C1)c1cccc(=O)n1C2`, the solubility (kinetic) is > 50.6 µg/mL.

Regarding `CCCNC(=O)COCc1cc(-c2ccc3c(c2)OCO3)on1`, the solubility (kinetic) is > 47.7 µg/mL.

Regarding `O=C(NCCCc1ccccc1)C1CC1`, the kinetic solubility was > 30.5 µg/mL.

`COc1ccc(CCNCc2cccn2C)cc1.Cl` showed a solubility (kinetic) of 40.5 µg/mL.

Take `O=c1cc(Cl)[nH]c(=O)n1Cc1ccc(F)cc1`: the kinetic solubility amounted to 34.9 µg/mL (≈ 137 µM).

`CCOc1ccc2[nH]cc(-c3csc(N)n3)c2c1` returned a solubility (kinetic) of 20.5 µg/mL (≈ 79 µM).

As to `CN(CC(O)Cn1c2ccccc2c2ccccc21)S(C)(=O)=O` (stereo not given), the solubility (kinetic) was > 49.9 µg/mL.

Compound `COC(=O)Nc1ccc(SCC(=O)c2ccccc2)cc1` displayed a kinetic solubility of 3.4 µg/mL (≈ 11.3 µM).

Regarding `Cc1ncc([N+](=O)[O-])n1CC(=O)Nc1cc(Cl)ccc1Cl`, the kinetic solubility came to 0.9 µg/mL (≈ 2.73 µM).

As for `COCCCNc1nc2nonc2nc1NCCSC`, the solubility (kinetic) amounted to 37.1 µg/mL (≈ 124 µM).

With `O=C1Cc2ccccc2C(=O)N1c1ccc(F)cc1Cl`, the solubility (kinetic) was 37.3 µg/mL (≈ 129 µM).

`CC(=O)Nc1cccc(NC(=O)/C=C/c2ccc(S(=O)(=O)N3CCOCC3)cc2)c1` gave a solubility (kinetic) of 18.8 µg/mL (≈ 43.8 µM).

As for `NS(=O)(=O)c1ccc2c(c1)C(=NO)c1cc(S(N)(=O)=O)ccc1-2`, the solubility (kinetic) worked out at 4.6 µg/mL (≈ 13 µM).

With `Cc1cccc(C)c1N=C1C(=O)Nc2ccccc21`, the solubility (kinetic) was 31.2 µg/mL (≈ 125 µM).

`C[C@H]1O[C@@H](n2cc(F)c(=O)[nH]c2=O)[C@H](O)[C@@H]1O`: the solubility (kinetic) is > 36.9 µg/mL.

`O=[N+]([O-])CC(c1ccccc1)P(=O)(c1ccccc1)c1ccccc1` (stereo not given) had a solubility (kinetic) of 9.1 µg/mL (≈ 25.9 µM).

Take `O=C(Nc1nccs1)C1CC(=O)N(c2ccccc2)C1` (stereo not given): the solubility (kinetic) was > 43.1 µg/mL.

On to `O=C(/C=C/c1ccc(Cl)cc1)N1CCOCC1`, for which the kinetic solubility was determined as 33.3 µg/mL (≈ 132 µM).

The compound `CCOC(=O)c1csc(-c2ccc3c(c2)CCO3)n1` had a kinetic solubility of 32.3 µg/mL (≈ 117 µM).

For the compound `Nc1cccc(Oc2ccc3c(c2)C(=O)NC3=O)c1`, the kinetic solubility came out at 36.6 µg/mL (≈ 144 µM).

For the compound `COc1cc(C(=O)NCC(=O)N2CCN(S(=O)(=O)c3ccccc3C(F)(F)F)CC2)cc(OC)c1OC`, the kinetic solubility was > 81.8 µg/mL.

For the compound `Cc1ccc[n+](Cc2ccc([N+](=O)[O-])cc2)c1.[Br-]`, the kinetic solubility was > 46.4 µg/mL.

The compound `CCN(CC)c1nc(N2CCN(C)CC2)nc2ccccc12.Cl` returned a kinetic solubility of 50.1 µg/mL.

For the compound `COc1ccc(N(Cc2cc3cc(C)ccc3[nH]c2=O)C(C)=O)cc1`, the solubility (kinetic) is 47 µg/mL (≈ 140 µM).

Consider `C=CCn1c(O)c(C=NC2CCN(Cc3ccccc3)CC2)c(=O)[nH]c1=O`, for which the solubility (kinetic) came out at 54.1 µg/mL (≈ 147 µM).

Turning to `COc1ccc2cc3c(nc2c1)OCC3`, the solubility (kinetic) is 25.2 µg/mL (≈ 125 µM).

`Cl.O=C(CN1CCCCC1)NC1CCc2cc3c(cc21)CCC3` (stereo not given) showed a kinetic solubility of 45.6 µg/mL.

With `CNc1nc(-c2cccs2)cc(C(F)(F)F)c1C#N`, the kinetic solubility is < 0.2 µg/mL.

On to `CC(=NCCN1CCCCC1)c1c(O)n(-c2ccccc2)c(=O)[nH]c1=O`, for which the solubility (kinetic) is > 53.5 µg/mL.

Take `Cc1ccc(C(=O)Nc2cccc(NC(=O)c3cccs3)c2)c(C)c1`: the kinetic solubility is 0.6 µg/mL (≈ 1.71 µM).

`CCCSc1ncnc2sc(C)c(C)c12` registered a kinetic solubility of 0.5 µg/mL (≈ 2.1 µM).

For `Nc1nc(SCCO)[nH]c(=O)c1NC(=O)c1ccco1`, the solubility (kinetic) was > 44.4 µg/mL.

Take `O=C(COC(=O)c1ccc(Br)o1)NCC1CCCCC1`: the kinetic solubility is > 51.6 µg/mL.

For `CCC(=O)Nc1ccc2c(c1)nc1n2CCN(C2CCCCC2)C1`, the solubility (kinetic) was > 49 µg/mL.

Consider `CCC(=O)c1c(NC(CC)CO)cc(C)oc1=O` (stereo not given), for which the solubility (kinetic) was > 38 µg/mL.

In the case of `O=C(NCC(c1ccco1)N1CCCCC1)c1ccc([N+](=O)[O-])s1` (stereo not given), the kinetic solubility is > 52.4 µg/mL.

Take `CSc1ccc(Cl)c(C(=O)OCC(=O)N2CCNC2=O)c1`: the kinetic solubility was > 49.3 µg/mL.

Regarding `CSc1ncccc1C(=O)OCC(=O)NC1CCCC1`, the kinetic solubility was > 44.2 µg/mL.

For the compound `O=C1CSC(=Nc2ccc(F)cc2)N1`, the kinetic solubility is > 31.5 µg/mL.

`CSc1nc(NS(=O)(=O)c2ccc(F)cc2F)nn1C`: the solubility (kinetic) is > 48 µg/mL.

Compound `CC1CCN(C(=O)c2ccc3c(c2)OCO3)CC1` returned a kinetic solubility of 36.9 µg/mL (≈ 149 µM).

Turning to `COc1ccc(-n2c(=S)[nH]c3sc4c(c3c2=O)CCN(C)C4)cc1`, the solubility (kinetic) is > 53.9 µg/mL.

With `Cc1cccc(C)c1OCC(=O)NC1CC1`, the kinetic solubility is > 32.9 µg/mL.

For `OC(COc1ccccc1)CN1CCCCCC1` (stereo not given), the kinetic solubility is > 37.4 µg/mL.

As for `O=C(O)c1cccc2c1C(=O)N(CC1CCCO1)C2` (stereo not given), the kinetic solubility is > 39.2 µg/mL.

Compound `COc1ccc(CNC(=S)Nc2ccccc2Cl)cc1` came in with a kinetic solubility of 12 µg/mL (≈ 39.1 µM).

Turning to `O=C(NCC(=O)N1CCN(Cc2ccccc2)CC1)c1cccs1`, the kinetic solubility is > 51.5 µg/mL.

Consider `O=C(NCc1cccs1)c1cc(-c2ccc(O)cc2)on1`, for which the solubility (kinetic) was found to be 1.7 µg/mL (≈ 5.66 µM).

`Cc1c2ccccc2nc2ccccc12` yielded a kinetic solubility of 7.9 µg/mL (≈ 40.9 µM).

`Cc1cccc(OCC(=O)NCCNC(=O)c2cccnc2)c1`: the solubility (kinetic) is > 47 µg/mL.

As for `CC1CCN(c2ccccc2NC(=O)c2ccc([N+](=O)[O-])o2)CC1`, the solubility (kinetic) came out at 0.5 µg/mL (≈ 1.52 µM).

With `Oc1ccc(N2CCN(Cc3nc4ccccc4[nH]3)CC2)cc1`, the solubility (kinetic) is > 46.3 µg/mL.

For `CC1(C)CC(=O)c2ccc(OCc3ccc([N+](=O)[O-])cc3)cc2O1`, the kinetic solubility is < 0.7 µg/mL.

In turn, `O=C(CNc1ccccc1)Nc1cccc2ccccc12` returned a solubility (kinetic) of 3.4 µg/mL (≈ 12.3 µM).

As to `C=CCNC(=O)COC(=O)c1nc2nccc(C)n2n1`, the kinetic solubility is > 41.3 µg/mL.

Take `COc1cccc2c(Nc3ccccc3C)cc(C)nc12.Cl`: the solubility (kinetic) was 40.1 µg/mL.

As for `O=C(NC(=S)Nc1ccc(O)cc1)c1cncc(Br)c1`, the solubility (kinetic) is > 52.8 µg/mL.

For the compound `COCCCNC(=S)Nc1cc(C)c(C)cc1C`, the solubility (kinetic) was > 40 µg/mL.

Regarding `CCOC(=O)Cc1csc(NC(=O)COc2ccc(C)cc2)n1`, the solubility (kinetic) was > 50.2 µg/mL.

`O=C(/C=C/c1ccc([N+](=O)[O-])cc1)OCc1cnc(-c2ccccc2)o1` returned a solubility (kinetic) of 6.8 µg/mL (≈ 19.4 µM).

As for `COc1ccc(C)cc1NC(=O)CC(NC(C)=O)c1ccccc1` (stereo not given), the kinetic solubility was > 49 µg/mL.

Turning to `CCOC(=O)/C=C1/N(C)c2ccccc2C1(C)C`, the solubility (kinetic) was < 0.5 µg/mL.

The compound `CCOC(=O)C1CCCN(Cc2cc(=O)oc3cc(C)c(C)cc23)C1` (stereo not given) showed a solubility (kinetic) of 23.1 µg/mL (≈ 67.3 µM).

As for `O=C(NCc1csc2ccc(Cl)cc12)Nc1ccccc1`, the solubility (kinetic) is < 0.3 µg/mL.

On to `CC1CCCC(NC(=O)CN2C(=O)NC(Cc3c[nH]c4ccccc34)C2=O)C1C` (stereo not given), for which the kinetic solubility was > 59.5 µg/mL.

In turn, `COc1cc([N+](=O)[O-])ccc1NC(=O)COC(=O)C=C(C)C` came in with a solubility (kinetic) of 3.6 µg/mL (≈ 11.7 µM).

Consider `CC(C)(C)c1ccc(-c2nc(N)nc(N)n2)cc1`, for which the solubility (kinetic) was 0.9 µg/mL (≈ 3.7 µM).

For the compound `O=C(Nc1ccc(CSc2ccccc2)cc1)c1ccco1`, the solubility (kinetic) is < 0.7 µg/mL.

For the origin of these results see PubChem BioAssay AID1996.
